These are literature values, as cited in patent US20210196801A1, “Starting Dose of PTH Conjugates” (Ascendis Pharma Bone Diseases A/S, priority 2018, published 2021).

Read-outs that look alike come from different tables or passages of the source.

Assay in data set [1]: not given
The source holds these as a separate data set.

What is called half-life is how long it takes for the measured level to halve. In the case of `CC[C@H](C)[C@H](NC(=O)[C@H](CCC(=O)O)NC(=O)[C@H](CO)NC(=O)[C@@H](NC(=O)[C@@H](N)CO)C(C)C)C(=O)N[C@@H](CCC(N)=O)C(=O)N[C@@H](CC(C)C)C(=O)N[C@@H](CCSC)C(=O)N[C@@H](Cc1cnc[nH]1)C(=O)N[C@@H](CC(N)=O)C(=O)N[C@@H](CC(C)C)C(=O)NCC(=O)N[C@@H](CCCCN)C(=O)N[C@@H](Cc1cnc[nH]1)C(=O)N[C@@H](CC(C)C)C(=O)N[C@@H](CC(N)=O)C(=O)N[C@@H](CO)C(=O)N[C@@H](CCSC)C(=O)N[C@@H](CCC(=O)O)C(=O)N[C@@H](CCCN=C(N)N)C(=O)N[C@H](C(=O)N[C@@H](CCC(=O)O)C(=O)N[C@@H](Cc1c[nH]c2ccccc12)C(=O)N[C@@H](CC(C)C)C(=O)N[C@@H](CCCN=C(N)N)C(=O)N[C@@H](CCCCN)C(=O)N[C@@H](CCCCN)C(=O)N[C@@H](CC(C)C)C(=O)N[C@@H](CCC(N)=O)C(=O)N[C@@H](CC(=O)O)C(=O)N[C@H](C(=O)N[C@@H](Cc1cnc[nH]1)C(=O)N[C@@H](CC(N)=O)C(=O)N[C@@H](Cc1ccccc1)C(=O)O)C(C)C)C(C)C` [Teriparatide], the half-life entry reads like this: (after IV administration) “about 5 minutes”; (after subcutaneous administration, due to prolonged absorption) ~1 h.
Regarding “Natpara: PTH(1-84), approved for once-daily subcutaneous injection in patients with hypoparathyroidism”, the half-life result in data set [1] (IV) is “about 5 minutes”; in data set [1] (after subcutaneous administration) it was “about 3 hours”.
